Data from US20240390334A1, “COMPOSITIONS AND METHODS FOR MITIGATING ALCOHOL LIVER DISEASE” (Research Foundation of the City University of New York, priority 2021, published 2024).

Columns and labels:
[1] = system: ethanol-fed mice; assay: Plasma AST and ALT activity (liver injury markers) in liquid ethanol diet model; type: in vivo, mouse (male C57BL/6J); conditions: EtOH-AC261 vs EtOH mice; 10 mg/kg/day, 3 weeks
Text: (§1) Liquid Ethanol Diet. Male C57BL/6J mice (8-9-weeks-old) (n=30) were purchased from Jackson Laboratory. Animals were housed in standard cages with 2-mice per cage and fed a standard vivarium chow (rodent diet #2014, Harlan-Teklad, Madison, WI). After acclimation to liquid feeding, mice were switched to the Lieber-DeCarli-liquid alcohol diet for 3 weeks using the following groups: 1) Control diet-fed mice (aka Pair-fed (PF), n=6), 2) Pair-fed mice+RARβ2 specific agonist AC261066 (Tocris #4046), at 10 mg/kg/day [Pair-fed+AC261, (n=4)] (PF-AC), 3) Alcohol-treated (5% ethanol (EtOH) v/v plus vehicle [0.1% DMSO], n=10) (EtOH), and iv) 4) EtOH+AC261, [10 mg/kg/day], n=10)] (EtOH-AC).

[2] = system: genes involved in de novo lipogenesis and fatty acid β-oxidation; assay: RNA-seq of hepatic transcripts of lipid metabolism genes in liquid ethanol diet model; type: in vivo, mouse (male C57BL/6J)
Text: as §1
The mechanism by which AC261066 functions in lipid metabolism, including de novo lipogenesis and fatty acid β-oxidation in the liver, was assessed.

[3] = Tolerability and general observations (food intake, body weight, blood alcohol, hepatic drug level, hepatotoxicity, fibrosis) in liquid ethanol diet study; type: in vivo, mouse (male C57BL/6J)
Text: as §1

[4] = system: 4-HNE; assay: Hepatic 4-HNE IHC (indirect readout of oxidative stress) in liquid ethanol diet model; type: in vivo, mouse (male C57BL/6J); conditions: EtOH-AC261 vs EtOH mice
Text: as §1
(§2) AC261066 and ethanol modulate centrilobular protein expression of ALDH1A1, CYP2E1, and Oxidative Stress. ALDH1A1 is one of the rate-limiting enzymes in the oxidation of retinaldehyde to RA and a key contributor to hepatic RA synthesis, as mice lacking ALDH1A1 show reduced hepatic levels of RA. […] Therefore, hepatic protein levels of ALDH1A1 were measured next, as it was the only ALDH1A isoform to increase in EtOH compared to PF mice. […] Therefore, given that high levels of ALDH1A1 were specifically detected only in zone 2-3, centrilobular regions, hepatic CYP2E1 protein levels were next measured by western blot and IHC, and by IHC, 4-HNE, as an indirect readout of oxidative stress. […]

[5] = system: ethanol-fed mice; assay: Hepatic steatosis (histopathology, Oil Red O, hepatic triglycerides) in Lieber-DeCarli liquid ethanol diet model of early ALD; type: in vivo, mouse (male C57BL/6J); conditions: EtOH-AC261 vs EtOH mice, 10 mg/kg/day, 3 weeks
Text: as §1

[6] = system: ALDH1A1; assay: Hepatic ALDH1A1 protein by western blot and IHC in liquid ethanol diet model; type: in vivo, mouse (male C57BL/6J); conditions: EtOH-AC vs EtOH mice
Text: as §1, §2

[7] = system: CYP2E1; assay: Hepatic CYP2E1 protein by western blot and IHC in liquid ethanol diet model; type: in vivo, mouse (male C57BL/6J); conditions: EtOH-AC261066 vs EtOH mice
Text: as §1, §2

[8] = molecular target: T1, human RARβ2 receptors (Homo sapiens, UniProt P10826); conditions: as described in Lund et al. (2005, J. Med. Chem., 48, 7517-7519); cited from earlier work
T1 sequence (P10826 1-448 isoform P10826-2): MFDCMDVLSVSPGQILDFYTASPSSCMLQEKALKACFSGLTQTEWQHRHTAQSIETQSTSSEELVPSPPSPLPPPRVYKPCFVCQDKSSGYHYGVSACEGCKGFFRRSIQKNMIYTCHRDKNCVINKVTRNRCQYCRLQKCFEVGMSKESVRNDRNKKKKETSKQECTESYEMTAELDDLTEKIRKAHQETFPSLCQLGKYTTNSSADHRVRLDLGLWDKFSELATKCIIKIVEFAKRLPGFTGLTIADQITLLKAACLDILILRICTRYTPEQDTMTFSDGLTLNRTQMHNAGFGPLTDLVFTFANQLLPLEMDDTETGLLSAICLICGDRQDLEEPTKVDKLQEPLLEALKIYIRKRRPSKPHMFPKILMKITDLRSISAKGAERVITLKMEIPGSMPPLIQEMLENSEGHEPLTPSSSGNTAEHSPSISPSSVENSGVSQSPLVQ

[9] = 5% ETOH-fed mice with vs without AC261066
[10] = 5% ETOH-fed plus AC261066 vs ETOH-fed mice without AC261066

Compound: CCCCOCCOc1nc(-c2ccc(C(=O)O)c(F)c2)sc1C [AC261066]
- reduction in plasma activity of ALT [1]: ~30%
- reduction in plasma activity of AST [1]: ~30%
- EtOH-induced increase in hepatic Fasn mRNA level [2, 9]: eliminated or attenuated
- EtOH-induced increase in hepatic Mogat1 mRNA level [2, 9]: eliminated or attenuated
- EtOH-induced increase in hepatic Pparg mRNA level [2, 9]: eliminated or attenuated
- hepatic CPT1-α transcripts [2, 10]: increased
- hepatic Ppara transcripts [2, 10]: increased
- changes to hepatic steatosis, triglyceride levels, fibrosis, or liver injury ([3]; PF+AC261 mice (pair-fed, no ethanol), 10 mg/kg/day, 3 weeks): No evidence was found of changes
- daily food intake and body weights ([3]; all groups, entire length of the study): no group differences
- hepatoxicity or fibrosis ([3]; concomitant administration of AC261 with EtOH, 3 weeks): no evidence
- effect of EtOH on hepatic AC261 levels ([3]; concomitant administration with EtOH, 3 weeks): did not adversely impact
- decrease in hepatic levels of 4-HNE [4]: 36%
- decrease in hepatic levels of 4-HNE (first value) [4]: 33%
- reduction in Oil red O lipid-staining [5]: 41%
- reduction in hepatic triglycerides [5]: 35%
- reduction in macrovesicular steatosis ([5]; 5% EtOH diet): 72%
- reduction in microvesicular steatosis ([5]; 5% EtOH diet): 82%
- reduction in zone 2-3, centrilobular ALDH1A1 protein immunoreactivity ([6]; IHC): 40%
- reduction in ALDH1A1 total protein ([6]; western blot): 32%
- reduction in zone 2-3 centrilobular CYP2E1 protein levels ([7]; IHC): ~39%
- reduction in hepatic CYP2E1 protein levels ([7]; total protein): approximately 31%
- isoform selectivity of agonism at human RARβ2 receptors [8]: highly isoform-selective agonists

Compound: CCCCCCCCc1ccc(-c2ccc(C(=O)O)cc2)cc1 [AC55649]
- isoform selectivity of agonism at human RARβ2 receptors [8]: highly isoform-selective agonists
